# US7160888B2, “[1,8]naphthyridin-2-ones and related compounds for the treatment of schizophrenia” (Warner Lambert Company LLC, priority 2003, dated 2007)
# Key:
# D2 receptor = D2 receptor (Homo sapiens, UniProt P14416); test: [3H]Thymidine uptake assay for D2 intrinsic activity; assay type: cell-based; conditions: Table 1; test compound 1 μM; 1 μM Quinpirole = 100% intrinsic activity
# D2 receptor, sequence (P14416 whole entry): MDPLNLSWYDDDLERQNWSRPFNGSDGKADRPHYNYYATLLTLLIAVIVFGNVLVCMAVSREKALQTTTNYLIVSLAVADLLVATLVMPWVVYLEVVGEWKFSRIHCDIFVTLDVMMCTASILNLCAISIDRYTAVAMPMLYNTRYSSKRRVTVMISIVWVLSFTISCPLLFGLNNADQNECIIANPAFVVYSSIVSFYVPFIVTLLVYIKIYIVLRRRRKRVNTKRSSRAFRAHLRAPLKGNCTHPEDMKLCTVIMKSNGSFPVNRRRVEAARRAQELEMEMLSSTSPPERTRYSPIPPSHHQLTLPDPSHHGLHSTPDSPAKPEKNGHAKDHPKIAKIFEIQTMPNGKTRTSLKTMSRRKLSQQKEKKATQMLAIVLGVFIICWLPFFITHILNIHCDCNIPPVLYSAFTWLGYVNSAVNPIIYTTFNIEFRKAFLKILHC
SMILES,melting point [°C],Emax at 1 µM (D2 receptor) [%]
"CC(=O)c1c(Cl)cccc1N1CCN(CCCCOc2ccc3c(n2)NC(=O)CC3)CC1 [Example A28, 7-{4-[4-(2-Acetyl-3-chloro-phenyl)-piperazin-1-yl]-butoxy}-3,4-dihydro-1H-[1,8]naphthyridin-2-one]",115,2
"CC(=O)c1cccc(N2CCN(CCCCOc3ccc4c(n3)NC(=O)CC4)CC2)c1Cl [Example A32, 7-{4-[4-(3-Acetyl-2-chloro-phenyl)-piperazin-1-yl]-butoxy}-3,4-dihydro-1H-[1,8]naphthyridin-2-one]",138 to 139,7
"O=C1CCc2ccc(OCCCCN3CCN(c4cccc5c4CCCC5=O)CC3)nc2N1 [Example A58, 7-{4-[4-(5-Oxo-5,6,7,8-tetrahydro-naphthalen-1-yl)-piperazin-1-yl]-butoxy}-3,4-dihydro-1H-[1,8]naphthyridin-2-one]",169 to 170,48
"CC(=O)c1cccc(N2CCN(CCCCOc3ccc4ccc(=O)[nH]c4n3)CC2)c1Cl [Example B6, 7-{4-[4-(3-Acetyl-2-chloro-phenyl)-piperazin-1-yl]-butoxy}-1H-[1,8]naphthyridin-2-one]",108 to 110,16
"O=C1CCCc2c1cccc2N1CCN(CCCCOc2ccc3ccc(=O)[nH]c3n2)CC1 [Example B42, 7-{4-[4-(5-Oxo-5,6,7,8-tetrahydro-naphthalen-1-yl)-piperazin-1-yl]-butoxy}-1H-[1,8]naphthyridin-2-one]",158 to 160,37
"Cc1cc(=O)[nH]c2nc(OCCCCN3CCN(c4cccc(Cl)c4Cl)CC3)ccc12 [Example D1, 7-{4-[4-(2,3-Dichloro-phenyl)-piperazin-1-yl]-butoxy}-4-methyl-1H-[1,8]naphthyridin-2-one]",181 to 182,31
"Cc1cc(=O)[nH]c2nc(CCCCCN3CCN(c4cccc(Cl)c4Cl)CC3)ccc12 [Example D3, 7-{5-[4-(2,3-Dichloro-phenyl)-piperazin-1-yl]-pentyl}-4-methyl-1H-[1,8]naphthyridin-2-one]",195 to 196,15
"Cc1cc2ccc(CCCCCN3CCN(c4cccc(Cl)c4Cl)CC3)nc2[nH]c1=O [Example D5, 7-{5-[4-(2,3-Dichloro-phenyl)-piperazin-1-yl]-pentyl}-3-methyl-1H-[1,8]naphthyridin-2-one]",157 to 158,15
"Cc1c(C)c2ccc(OCCCCN3CCN(c4cccc(Cl)c4Cl)CC3)nc2[nH]c1=O [Example D7, 7-{4-[4-(2,3-Dichloro-phenyl)-piperazin-1-yl]-butoxy}-3,4-dimethyl-1H-[1,8]naphthyridin-2-one]",161 to 163,15
"Cc1c(C)c2ccc(CCCCCN3CCN(c4cccc(Cl)c4Cl)CC3)nc2[nH]c1=O [Example D8, 7-{5-[4-(2,3-Dichloro-phenyl)-piperazin-1-yl]-pentyl}-3,4-dimethyl-1H-[1,8]naphthyridin-2-one]",202 to 203,8
"Cc1cc2c(nc1OCCCCN1CCN(c3cccc(Cl)c3Cl)CC1)NC(=O)CC2 [Example E1, 7-{4-[4-(2,3-Dichloro-phenyl)-piperazin-1-yl]-butoxy}-6-methyl-3,4-dihydro-1H-[1,8]naphthyridin-2-one]",138 to 139,32
"Cc1cc2c(nc1OCCCCN1CCN(c3cccc4ccccc34)CC1)NC(=O)CC2 [Example E2, 6-Methyl-7-[4-(4-naphthalen-1-yl-piperazin-1-yl)-butoxy]-3,4-dihydro-1H-[1,8]naphthyridin-2-one]",76 to 78,22
"O=C1NCc2ccc(OCCCCN3CCN(c4cccc(Cl)c4Cl)CC3)nc2N1 [Example F1, 7-{4-[4-(2,3-Dichloro-phenyl)-piperazin-1-yl]-butoxy}-3,4-dihydro-1H-pyrido[2,3-d]pyrimidin-2-one]",166 to 167,8
"O=C1NCc2ccc(OCCCCN3CCN(c4cccc5ccccc45)CC3)nc2N1 [Example F2, 7-[4-(4-Naphthalen-1-yl-piperazin-1-yl)-butoxy]-3,4-dihydro-1H-pyrido[2,3-d]pyrimidin-2-one]",136 to 138,30
